Target: T1, Human GLP-1 receptor (Homo sapiens, UniProt P43220)
T1 construct: expressed in transfected cells; host or cells: CHO-K1
Test: Measurement of GLP-1 receptor agonist activity (cAMP assay in hGLP-1R/CHO-K1 cells)
Type: cell-based
Settings: for Emax: CHO-K1, maximum effect, cAMP with 2 nM human GLP-1 (7-36) = 100%, DMSO only = 0%; for EC50: cAMP increase in hGLP-1R/CHO-K1 cells, 1 hour at 37° C., with Forskolin
Experimental: Human GLP-1 receptor stably expressing cells (hGLP-1R/CHO-K1 cells) are cultured in an α-MEM medium (Sigma) containing 10% FBS (Hyclone), 2% GlutaMAX (Gibco), 1% G418 (Nacalai Tesque), and 1% Penicillin-Streptomycin Mixed Solution (Sigma) at 37° C. under 5% CO2 conditions, and recovered by treating a 10 fold diluted 5.0 g/1-trypsin/5.3 mmol/1-EDTA solution (Nacalai Tesque) and cryopreserved.
A DMSO solution containing the compound of the present invention or human GLP-1 (7-36) (Phoenix Pharmaceuticals) is dispensed into a 384-well microplate (Greiner) at 62.5 nL/well, and in addition, 400 μM Forskolin (Nacalai Tesque) is dispensed therein at 7.5 nL/well. Subsequently, the frozen GLP-1 R/CHO-K1 cells are thawed in a thermostatic bath at 37° C., suspended in HBSS buffer (GIBCO) containing 0.1% BSA (Sigma), 20 mM HEPES, 0.1 mM IBMX (Sigma), and 0.2 mM RO20-1724 (Calbiochem) at 2×10^4 cells/mL, and the cell suspension is added at 6 μL/well. The solution was incubated at 37° C. for 1 hour and intracellular cAMP concentration is measured using cAMP Gs dynamic kit (Cisbio) according to the protocol attached to the product. Specifically, a cAMP-d2/Anti-cAMP-Cryptate (1/1) mixture solution is added in a total amount of 6 μL/well, and is incubated at room temperature for 1 hour, and then, time-resolved fluorescence is measured using PHERAstar (BMG Labtech).
Assuming that the cAMP concentration when human GLP-1 (7-36) is dispensed to a final concentration of 2 nM is 100% and the cAMP concentration when only DMSO is dispensed is 0%, the 50% effective concentration (EC50) and the maximum effect (Emax) of the compound of the present invention are calculated using an increase in the cAMP concentration as an index, using TIBCO Spotfire (TIBCO Software). The dilution concentration or the dilution solvent are changed as necessary.
The compounds of the present invention were tested essentially as described above.

T1 sequence (P43220 24-463): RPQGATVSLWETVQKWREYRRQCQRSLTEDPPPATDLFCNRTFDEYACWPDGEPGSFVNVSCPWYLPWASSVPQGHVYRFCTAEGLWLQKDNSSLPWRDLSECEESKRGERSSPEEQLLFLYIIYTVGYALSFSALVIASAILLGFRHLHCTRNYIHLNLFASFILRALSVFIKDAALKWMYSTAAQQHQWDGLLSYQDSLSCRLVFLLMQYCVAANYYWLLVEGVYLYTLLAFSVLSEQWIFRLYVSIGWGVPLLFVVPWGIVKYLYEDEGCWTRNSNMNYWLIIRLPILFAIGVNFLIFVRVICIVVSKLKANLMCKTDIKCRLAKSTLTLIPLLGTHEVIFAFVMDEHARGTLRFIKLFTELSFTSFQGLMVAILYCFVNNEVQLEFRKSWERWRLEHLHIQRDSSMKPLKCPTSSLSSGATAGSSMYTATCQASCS

`CC(NCc1nc2ccc(C(=O)O)cc2n1C[C@@H]1CCO1)c1nc(OCc2ccc(Cl)cc2F)c(C(F)(F)F)cc1F` (mixture of isomers) [Compound I-003] gave an Emax of 65.3% and an EC50 of 0.354 µM.

Work on `CC(NCc1nc2ccc(C(=O)O)cc2n1C[C@@H]1CCO1)c1ccc(C(F)(F)F)c(OCc2ccc(Cl)cc2F)n1` (mixture of isomers) [Compound I-004] yielded an Emax of 60% and an EC50 of 1.06 µM.

In the case of `CN(CCc1cnc(OCc2ccc(Cl)cc2F)c(C(F)(F)F)c1)Cc1nc2ccc(C(=O)O)cc2n1C[C@@H]1CCO1` [Compound I-002], the Emax is reported as 52% and the EC50 is reported as 2.3 µM.

With `CC(c1ccc(C(F)(F)F)c(OCc2ccc(Cl)cc2F)n1)N(C)Cc1nc2ccc(C(=O)O)cc2n1C[C@@H]1CCO1` (stereo partly shown) [Compound I-005] the Emax was 74.7% and the EC50 was 0.086 µM.

`O=C(O)c1ccc2nc(CNCc3ccc(C(F)(F)F)c(OCc4ccc(Cl)cc4F)n3)n(C[C@@H]3CCO3)c2c1` [Compound I-006] showed an Emax of 55% and an EC50 of 2.83 µM.

From patent US20260098031A1, “MONOCYCLIC COMPOUND HAVING GLP-1 RECEPTOR AGONIST ACTIVITY” (Shionogi & Co., Ltd., priority 2022, published 2026)
